Reference: US20130005747A1, “METHOD FOR SELECTING A CANCER THERAPY” (Cyclacel Limited, priority 2010, published 2013)

Key:
Experiment in all cases: Fractional growth, 72 h seliciclib
Format in all cases: cell-based, human
639-V = 639-V (Bladder), 15 μM seliciclib
Excerpt: (§1) A total of 270 human cancer cell lines from diverse cancer histopathologic types were investigated.

769-P = 769-P (Kidney), 15 μM seliciclib
Excerpt: as §1

786-O = 786-O (Kidney), 15 μM seliciclib
Excerpt: as §1

8505C = 8505C (Thyroid), 15 μM seliciclib
Excerpt: as §1

A-375 = A-375 (Skin), 15 μM seliciclib
Excerpt: as §1

AGS = AGS (Stomach), 15 μM seliciclib
Excerpt: as §1

BEN = BEN (Lung: NSCLC), 15 μM seliciclib
Excerpt: as §1

BT-20 = BT-20 (Breast), 15 μM seliciclib
Excerpt: as §1

CAL-33 = CAL-33 (Head & Neck), 15 μM seliciclib
Excerpt: as §1

COR-L23 = COR-L23 (Lung: NSCLC), 15 μM seliciclib
Excerpt: as §1

CaR-1 = CaR-1 (Intestine), 15 μM seliciclib
Excerpt: as §1

Calu-1 = Calu-1 (Lung: NSCLC), 15 μM seliciclib
Excerpt: as §1

Calu-3 = Calu-3 (Lung: NSCLC), 15 μM seliciclib
Excerpt: as §1

DAN-G = DAN-G (Pancreas), 15 μM seliciclib
Excerpt: as §1

ESS-1 = ESS-1 (Uterus), 15 μM seliciclib
Excerpt: as §1

GAMG = GAMG (Brain), 15 μM seliciclib
Excerpt: as §1

HCT-15 = HCT-15 (Intestine), 15 μM seliciclib
Excerpt: as §1

HPAC = HPAC (Pancreas), 15 μM seliciclib
Excerpt: as §1

HT 1080 = HT 1080 (Miscellaneous), 15 μM seliciclib
Excerpt: as §1

HuCCT1 = HuCCT1 (Liver), 15 μM seliciclib
Excerpt: as §1

IGR-1 = IGR-1 (Skin), 15 μM seliciclib
Excerpt: as §1

KATO III = KATO III (Stomach), 15 μM seliciclib
Excerpt: as §1

KMRC-1 = KMRC-1 (Kidney), 15 μM seliciclib
Excerpt: as §1

KU-19-19 = KU-19-19 (Bladder), 15 μM seliciclib
Excerpt: as §1

KYSE-140 = KYSE-140 (Esophagus), 15 μM seliciclib
Excerpt: as §1

MES-SA = MES-SA (Uterus), 15 μM seliciclib
Excerpt: as §1

MFM-223 = MFM-223 (Breast), 15 μM seliciclib
Excerpt: as §1

NCI-H1651 = NCI-H1651 (Lung: NSCLC), 15 μM seliciclib
Excerpt: as §1

NCI-H1792 = NCI-H1792 (Lung: NSCLC), 15 μM seliciclib
Excerpt: as §1

NCI-H1793 = NCI-H1793 (Lung: NSCLC), 15 μM seliciclib
Excerpt: as §1

NH-6 = NH-6 (Kidney), 15 μM seliciclib
Excerpt: as §1

PA-TU-8902 = PA-TU-8902 (Pancreas), 15 μM seliciclib
Excerpt: as §1

PC-3 = PC-3 (Prostate), 15 μM seliciclib
Excerpt: as §1

PCI-4A = PCI-4A (Head & Neck), 15 μM seliciclib
Excerpt: as §1

SAS = SAS (Head & Neck), 15 μM seliciclib
Excerpt: as §1

SCCH-196 = SCCH-196 (Miscellaneous), 15 μM seliciclib
Excerpt: as §1

VMRC-RCZ = VMRC-RCZ (Kidney), 15 μM seliciclib
Excerpt: as §1

How did the “Fractional Growth” value (639-V) turn out when `CC[C@H](CO)Nc1nc(NCc2ccccc2)c2ncn(C(C)C)c2n1` [seliciclib, roscovitine] was run?
The value was 0.4196.

And the “Fractional Growth” value (769-P)?
The value was 0.602.

And the “Fractional Growth” value (786-O)?
The value was 0.3998.

What about the “Fractional Growth” value (8505C) of the same compound?
Its value is 0.4214.

And the “Fractional Growth” value (A-375)?
The value was 0.1771.

And the “Fractional Growth” value (AGS)?
The value was 0.2157.

What about the “Fractional Growth” value (BEN) of the same compound?
The value was 0.4149.

And the “Fractional Growth” value (BT-20)?
Its value is 0.7016.

What about the “Fractional Growth” value (CAL-33) of the same compound?
The value was 0.6834.

What about the “Fractional Growth” value (COR-L23) of the same compound?
The value was 0.2341.

What about the “Fractional Growth” value (CaR-1) of the same compound?
The value was 0.5795.

What about the “Fractional Growth” value (Calu-1) of the same compound?
The value was 0.6124.

And the “Fractional Growth” value (Calu-3)?
The value was 0.6463.

And the “Fractional Growth” value (DAN-G)?
Its value is 0.6841.

What about the “Fractional Growth” value (ESS-1) of the same compound?
The value was 0.4399.

And the “Fractional Growth” value (GAMG)?
The value was 0.571.

And the “Fractional Growth” value (HCT-15)?
The value was 0.5363.

And the “Fractional Growth” value (HPAC)?
Its value is 0.7062.

And the “Fractional Growth” value (HT 1080)?
Its value is 0.2044.

And the “Fractional Growth” value (HuCCT1)?
The value was 0.4559.

What about the “Fractional Growth” value (IGR-1) of the same compound?
Its value is 0.5764.

And the “Fractional Growth” value (KATO III)?
Its value is 0.4299.

And the “Fractional Growth” value (KMRC-1)?
The value was 0.554.

What about the “Fractional Growth” value (KU-19-19) of the same compound?
Its value is 0.3033.

What about the “Fractional Growth” value (KYSE-140) of the same compound?
The value was 0.6278.

And the “Fractional Growth” value (MES-SA)?
Its value is 0.3922.

And the “Fractional Growth” value (MFM-223)?
The value was 0.5683.

And the “Fractional Growth” value (NCI-H1651)?
The value was 0.6289.

And the “Fractional Growth” value (NCI-H1792)?
The value was 0.4649.

And the “Fractional Growth” value (NCI-H1793)?
The value was 0.6274.

What about the “Fractional Growth” value (NH-6) of the same compound?
The value was 0.5218.

What about the “Fractional Growth” value (PA-TU-8902) of the same compound?
Its value is 0.5577.

And the “Fractional Growth” value (PC-3)?
The value was 0.4021.

What about the “Fractional Growth” value (PCI-4A) of the same compound?
Its value is 0.3628.

What about the “Fractional Growth” value (SAS) of the same compound?
Its value is 0.3207.

And the “Fractional Growth” value (SCCH-196)?
The value was 0.6177.

And the “Fractional Growth” value (VMRC-RCZ)?
Its value is 0.5994.
